# Measurements published in PMC11790914, “Chemogenomics for steroid hormone receptors (NR3)” (Communications Chemistry, 2025).
# “And” between values parts separate entries of the source, which are not always exact repeats. Equal values may be shown once.
# Legend:
# FGFR3 = biological target: T1, FGFR3 (Homo sapiens, UniProt P22607); assay: Liability panel screening by DSF: FGFR3; type: binding; conditions: DSF, 20 µM, n=2; read-out: Mean ΔTM FGFR3
# T1 construct: made in house
# Method in brief: (§1)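 Recombinant protein at 2 µM in 10 mM HEPES pH 7.5 with 500 mM NaCl was mixed with SYPRO Orange (1:1000) and heated at 3 °C/min up to 85 °C. Tm was taken as the Boltzmann-fit inflection point. Shifts are ∆Tm in K from technical duplicates.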
# [1] = system: NF-κB activity in HEK293 NF-κB reporter cells; assay: NF-kB activity assay (GFP reporter, ionomycin/PMA); type: cell-based; conditions: for Mean NFκB response: n=3
# Method in brief: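 Reporter readout: GFP-expressing cells normalized to confluence, imaged every 90 min across 24 h after ionomycin (100 ng/mL)/PMA (10 ng/mL) stimulation of HEK293 cells pre-treated 4 h with compound (0.1% DMSO); triplicate independent experiments.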
# HEK293T cells [2] = assay: Cytotoxicity: growth-rate (change in confluence over 24 h); conditions: normalized to 0.1% DMSO control, single replicates (n=1...)
# CSNK1D = biological target: T2, CSNK1D (Homo sapiens, UniProt P48730); assay: Liability panel screening by DSF: CSNK1D; type: binding; conditions: DSF, 20 µM, n=2; read-out: Mean ΔTM CSNK1D
# T2 construct: made in house
# T2 sequence (P48730 whole entry, species assumed): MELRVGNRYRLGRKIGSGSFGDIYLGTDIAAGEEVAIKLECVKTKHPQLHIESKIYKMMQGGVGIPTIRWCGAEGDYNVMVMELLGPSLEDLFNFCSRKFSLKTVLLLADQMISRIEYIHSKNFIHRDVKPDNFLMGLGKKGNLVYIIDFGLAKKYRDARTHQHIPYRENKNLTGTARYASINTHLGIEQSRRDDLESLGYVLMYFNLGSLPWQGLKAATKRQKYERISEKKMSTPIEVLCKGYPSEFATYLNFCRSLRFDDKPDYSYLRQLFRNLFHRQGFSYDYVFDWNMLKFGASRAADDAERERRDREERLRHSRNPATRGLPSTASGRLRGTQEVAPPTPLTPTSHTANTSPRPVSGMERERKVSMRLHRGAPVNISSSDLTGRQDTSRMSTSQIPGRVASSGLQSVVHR
# Method in brief: as §1
# HEK293T cells [3] = assay: Cytotoxicity: necrosis induction (red fluorescent dye for permeable plasma membranes); type: cell-based; conditions: 24 h, necrotic cell count normalized to 0.1% DMSO, single replicates;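 note: compounds applied in DMEM high glucose with 0.1% FCS and 0.1% DMSO, necrotic HEK293T cells counted by red staining of cells whose plasma membranes had become permeable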
# GSK3B = biological target: T3, GSK3B (Homo sapiens, UniProt P49841); assay: Liability panel screening by DSF: GSK3B; type: binding; conditions: DSF, 20 µM, n=2; read-out: Mean ΔTM GSK3B
# T3 construct: made in house
# T3 sequence (P49841 whole entry, species assumed): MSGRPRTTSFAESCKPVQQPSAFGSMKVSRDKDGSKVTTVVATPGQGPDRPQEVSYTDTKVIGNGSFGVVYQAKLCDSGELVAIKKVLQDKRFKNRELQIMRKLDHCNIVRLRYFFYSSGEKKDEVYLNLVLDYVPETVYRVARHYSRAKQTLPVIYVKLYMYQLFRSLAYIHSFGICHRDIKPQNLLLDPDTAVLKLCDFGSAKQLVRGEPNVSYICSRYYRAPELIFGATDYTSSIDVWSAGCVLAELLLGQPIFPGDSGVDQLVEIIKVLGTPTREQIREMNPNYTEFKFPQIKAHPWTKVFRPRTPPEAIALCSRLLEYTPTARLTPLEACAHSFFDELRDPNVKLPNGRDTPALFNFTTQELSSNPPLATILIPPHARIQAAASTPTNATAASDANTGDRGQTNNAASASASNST
# CDK2 = biological target: T4, CDK2 (Homo sapiens, UniProt P24941); assay: Liability panel screening by DSF: CDK2; type: binding; conditions: DSF, 20 µM, n=2; read-out: Mean ΔTM CDK2
# T4 construct: made in house
# Method in brief: as §1
# TRIM24 = biological target: T5, TRIM24 (Homo sapiens, UniProt O15164); assay: Liability panel screening by DSF: TRIM24; type: binding; conditions: DSF, 20 µM, n=2; read-out: Mean ΔTM TRIM24
# T5 construct: This panel comprised ten highly ligandable kinases and bromodomains; made in house
# T5 sequence (O15164 899-1004 limits assumed): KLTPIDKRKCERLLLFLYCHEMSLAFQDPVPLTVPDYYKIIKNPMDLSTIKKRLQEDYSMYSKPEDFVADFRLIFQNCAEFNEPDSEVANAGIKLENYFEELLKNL
# Method in brief: as §1
# ABL1 = biological target: T6, ABL1 (Homo sapiens, UniProt P00519); assay: Liability panel screening by DSF: ABL1; type: binding; conditions: DSF, 20 µM, n=2; read-out: Mean ΔTM ABL1
# T6 construct: made in house
# T6 sequence (P00519 whole entry, species assumed): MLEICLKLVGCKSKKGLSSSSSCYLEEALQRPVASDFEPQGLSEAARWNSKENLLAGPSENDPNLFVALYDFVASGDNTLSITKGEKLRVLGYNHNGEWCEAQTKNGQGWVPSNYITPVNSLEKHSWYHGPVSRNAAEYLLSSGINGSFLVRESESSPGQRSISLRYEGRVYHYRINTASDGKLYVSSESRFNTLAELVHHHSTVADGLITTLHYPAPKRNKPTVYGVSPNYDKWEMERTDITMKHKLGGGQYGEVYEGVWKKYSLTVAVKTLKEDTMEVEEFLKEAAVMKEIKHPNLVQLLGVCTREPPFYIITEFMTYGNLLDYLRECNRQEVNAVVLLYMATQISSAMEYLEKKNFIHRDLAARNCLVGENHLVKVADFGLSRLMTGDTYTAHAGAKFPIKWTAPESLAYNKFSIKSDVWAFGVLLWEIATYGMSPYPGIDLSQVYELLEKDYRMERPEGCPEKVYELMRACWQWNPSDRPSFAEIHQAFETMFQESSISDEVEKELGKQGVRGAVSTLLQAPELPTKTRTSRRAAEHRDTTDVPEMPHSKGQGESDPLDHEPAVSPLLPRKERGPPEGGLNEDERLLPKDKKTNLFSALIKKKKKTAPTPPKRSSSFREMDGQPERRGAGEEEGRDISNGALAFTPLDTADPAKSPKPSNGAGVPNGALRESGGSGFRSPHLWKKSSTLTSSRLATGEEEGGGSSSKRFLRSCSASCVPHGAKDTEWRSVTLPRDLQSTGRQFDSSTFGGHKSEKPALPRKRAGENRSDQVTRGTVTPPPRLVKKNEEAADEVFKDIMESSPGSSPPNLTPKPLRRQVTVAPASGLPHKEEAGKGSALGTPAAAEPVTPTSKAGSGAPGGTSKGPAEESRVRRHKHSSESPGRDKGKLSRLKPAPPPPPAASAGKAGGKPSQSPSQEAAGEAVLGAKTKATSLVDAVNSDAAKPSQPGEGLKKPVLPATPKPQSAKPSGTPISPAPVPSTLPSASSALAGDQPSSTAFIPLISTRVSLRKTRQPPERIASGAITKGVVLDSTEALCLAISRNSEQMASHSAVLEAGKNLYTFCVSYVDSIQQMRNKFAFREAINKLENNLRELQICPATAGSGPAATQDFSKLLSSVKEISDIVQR
# Method in brief: as §1
# HEK293T cells [4] = assay: Cytotoxicity: apoptosis induction (caspase-3/7 DEVD fluorogenic DNA dye); conditions: HEK293T, 24 h; for Apoptosis induction [AI]: apoptotic cell count normalized to 0.1% DMSO, single replicates
# MAPK1 = biological target: T7, MAPK1 (Homo sapiens, UniProt P28482); assay: Liability panel screening by DSF: MAPK1; type: binding; conditions: DSF, 20 µM, n=2; read-out: Mean ΔTM MAPK1
# T7 construct: made in house
# T7 sequence (P28482 whole entry, species assumed): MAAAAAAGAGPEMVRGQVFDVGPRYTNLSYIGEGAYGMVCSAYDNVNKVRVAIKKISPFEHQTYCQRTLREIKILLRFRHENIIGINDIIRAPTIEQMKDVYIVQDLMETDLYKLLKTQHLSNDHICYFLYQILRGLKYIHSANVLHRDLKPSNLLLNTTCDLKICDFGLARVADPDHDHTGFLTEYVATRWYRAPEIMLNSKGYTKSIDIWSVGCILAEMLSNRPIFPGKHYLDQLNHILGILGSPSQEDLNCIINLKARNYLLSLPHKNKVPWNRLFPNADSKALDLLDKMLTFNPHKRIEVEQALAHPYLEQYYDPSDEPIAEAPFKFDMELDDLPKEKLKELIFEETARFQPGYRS
# Method in brief: as §1
# BRPF1 = biological target: T8, BRPF1 (Homo sapiens, UniProt P55201); assay: Liability panel screening by DSF: BRPF1; type: binding; conditions: DSF, 20 µM, n=2; read-out: Mean ΔTM BRPF1
# T8 construct: This panel comprised ten highly ligandable kinases and bromodomains; made in house
# T8 sequence (P55201 628-732 limits assumed): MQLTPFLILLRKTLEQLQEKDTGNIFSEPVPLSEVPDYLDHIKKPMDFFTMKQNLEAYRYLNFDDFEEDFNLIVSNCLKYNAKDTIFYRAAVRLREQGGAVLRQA
# Method in brief: as §1
# AURKA = biological target: T9, AURKA (Homo sapiens, UniProt O14965); assay: Liability panel screening by DSF: AURKA; type: binding; conditions: DSF, 20 µM, n=2; read-out: Mean ΔTM AURKA
# T9 construct: made in house
# T9 sequence (O14965 1-403): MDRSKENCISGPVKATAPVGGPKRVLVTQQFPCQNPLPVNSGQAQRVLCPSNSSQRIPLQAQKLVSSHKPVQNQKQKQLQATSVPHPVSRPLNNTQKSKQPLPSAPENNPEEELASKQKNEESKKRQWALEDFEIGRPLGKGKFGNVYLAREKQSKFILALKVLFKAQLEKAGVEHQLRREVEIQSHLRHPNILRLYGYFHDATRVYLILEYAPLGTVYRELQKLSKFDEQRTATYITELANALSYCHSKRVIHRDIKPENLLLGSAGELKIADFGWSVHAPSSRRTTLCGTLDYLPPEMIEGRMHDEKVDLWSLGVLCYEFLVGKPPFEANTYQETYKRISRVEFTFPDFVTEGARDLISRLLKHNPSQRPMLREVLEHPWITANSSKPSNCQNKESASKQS
# Method in brief: as §1
# BRD4 = biological target: T10, BRD4 (Homo sapiens, UniProt O60885); assay: Liability panel screening by DSF: BRD4; type: binding; conditions: DSF, 20 µM, n=2; read-out: Mean ΔTM BRD4
# T10 construct: This panel comprised ten highly ligandable kinases and bromodomains; made in house
# Method in brief: as §1
# Gal4-VP16 = type: cell-based; conditions: 1 µM; vs. DMSO ctrl; single replicates n=1-3
# T1 sequence (P22607 23-806, species assumed): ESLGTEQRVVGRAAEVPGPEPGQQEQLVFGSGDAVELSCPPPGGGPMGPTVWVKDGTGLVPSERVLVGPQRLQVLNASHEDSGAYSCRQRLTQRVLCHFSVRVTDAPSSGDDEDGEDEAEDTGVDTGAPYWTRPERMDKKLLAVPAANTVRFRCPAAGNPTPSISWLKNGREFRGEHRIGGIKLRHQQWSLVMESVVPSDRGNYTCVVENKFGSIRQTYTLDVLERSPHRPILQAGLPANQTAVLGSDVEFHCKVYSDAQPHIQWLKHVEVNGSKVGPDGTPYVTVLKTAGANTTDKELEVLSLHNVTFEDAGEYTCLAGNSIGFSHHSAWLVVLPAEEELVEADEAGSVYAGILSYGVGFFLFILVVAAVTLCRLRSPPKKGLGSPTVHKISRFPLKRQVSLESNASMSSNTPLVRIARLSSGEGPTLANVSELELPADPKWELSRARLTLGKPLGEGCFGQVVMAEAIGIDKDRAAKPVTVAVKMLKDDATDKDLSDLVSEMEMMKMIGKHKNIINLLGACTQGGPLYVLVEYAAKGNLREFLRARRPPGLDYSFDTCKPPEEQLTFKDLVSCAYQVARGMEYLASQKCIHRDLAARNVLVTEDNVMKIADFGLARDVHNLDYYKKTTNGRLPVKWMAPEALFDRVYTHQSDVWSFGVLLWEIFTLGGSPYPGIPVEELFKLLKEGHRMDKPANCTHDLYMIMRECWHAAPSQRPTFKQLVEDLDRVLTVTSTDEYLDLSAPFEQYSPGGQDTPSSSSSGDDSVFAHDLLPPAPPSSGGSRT
compound,measurement,setting,value
CC#C[C@]1(O)CC[C@H]2[C@@H]3CCC4=CC(=O)CCC4=C3[C@@H](c3ccc(N(C)C)cc3)C[C@@]21C [Mifepristone],ΔTm at 20 µM,FGFR3,0.14 °C
same,Mean NFκB response,"[1]; 3 µM, 1,5 h",3613.33 GFP+-cells/confluence ∙ 1000
same,Mean NFκB response,"[1]; 3 µM, 4,5 h",4100.00 GFP+-cells/confluence ∙ 1000
same,Mean NFκB response,"[1]; 3 µM, 7,5 h",7536.67 GFP+-cells/confluence ∙ 1000
same,Mean NFκB response,"[1]; 3 µM, 10,5 h",17493.33 GFP+-cells/confluence ∙ 1000
same,Mean NFκB response,"[1]; 3 µM, 13,5 h",25396.67 GFP+-cells/confluence ∙ 1000
same,Mean NFκB response,"[1]; 3 µM, 16,6 h",31560.00 GFP+-cells/confluence ∙ 1000
same,Mean NFκB response,"[1]; 3 µM, 19,5 h",36246.67 GFP+-cells/confluence ∙ 1000
same,Mean NFκB response,"[1]; 3 µM, 22,5 h",39496.67 GFP+-cells/confluence ∙ 1000
same,Mean NFκB response,"[1]; 3 µM, 3 h",3656.67 GFP+-cells/confluence ∙ 1000
same,Mean NFκB response,"[1]; 3 µM, 6 h",4860.00 GFP+-cells/confluence ∙ 1000
same,Mean NFκB response,"[1]; 3 µM, 9 h",12946.67 GFP+-cells/confluence ∙ 1000
same,Mean NFκB response,"[1]; 3 µM, 12 h",21246.67 GFP+-cells/confluence ∙ 1000
same,Mean NFκB response,"[1]; 3 µM, 15 h",28726.67 GFP+-cells/confluence ∙ 1000
same,Mean NFκB response,"[1]; 3 µM, 18 h",34060.00 GFP+-cells/confluence ∙ 1000
same,Mean NFκB response,"[1]; 3 µM, 21 h",38440.00 GFP+-cells/confluence ∙ 1000
same,Mean NFκB response,"[1]; 3 µM, 24 h",40840.00 GFP+-cells/confluence ∙ 1000
same,Growth rate [GR],HEK293T cells [2]; 3 µM,0.65 and 3.36 and 0.73 and 0.97 and 1.04 and 0.86 and 1.00 and 1.72 and 1.53 and 3.99
same,ΔTm at 20 µM,CSNK1D,0.0217 °C
same,Necrosis induction [NI],HEK293T cells [3]; 3 µM,1.14 and 0.95 and 0.92 and 0.99
same,ΔTm at 20 µM,GSK3B,-1.3 °C
same,ΔTm at 20 µM,CDK2,-0.0248 °C
same,ΔTm at 20 µM,TRIM24,-0.92 °C
same,ΔTm at 20 µM,ABL1,0.11 °C
same,Apoptosis induction [AI],HEK293T cells [4]; 3 µM,1.09 and 1.02 and 1.10 and 1.15 and 0.56 and 0.53
same,ΔTm at 20 µM,MAPK1,-0.7 °C
same,ΔTm at 20 µM,BRPF1,-2.63 °C
same,ΔTm at 20 µM,AURKA,-1.55 °C
same,ΔTm at 20 µM,BRD4,-2.39 °C
C[C@@H]1Cc2c([nH]c3ccccc23)[C@@H](c2c(F)cc(/C=C/C(=O)O)cc2F)N1CC(C)(C)F [AZD9496],ΔTm at 20 µM,FGFR3,0.58 °C
same,Mean NFκB response,"[1]; 1 µM, 1,5 h",3183.32 GFP+-cells/confluence ∙ 1000
same,Mean NFκB response,"[1]; 1 µM, 4,5 h",3743.71 GFP+-cells/confluence ∙ 1000
same,Mean NFκB response,"[1]; 1 µM, 7,5 h",6968.05 GFP+-cells/confluence ∙ 1000
same,Mean NFκB response,"[1]; 1 µM, 10,5 h",12962.04 GFP+-cells/confluence ∙ 1000
same,Mean NFκB response,"[1]; 1 µM, 13,5 h",18218.90 GFP+-cells/confluence ∙ 1000
same,Mean NFκB response,"[1]; 1 µM, 16,6 h",22070.92 GFP+-cells/confluence ∙ 1000
same,Mean NFκB response,"[1]; 1 µM, 19,5 h",24828.05 GFP+-cells/confluence ∙ 1000
same,Mean NFκB response,"[1]; 1 µM, 22,5 h",27011.69 GFP+-cells/confluence ∙ 1000
same,Mean NFκB response,"[1]; 1 µM, 3 h",3319.11 GFP+-cells/confluence ∙ 1000
same,Mean NFκB response,"[1]; 1 µM, 6 h",4897.81 GFP+-cells/confluence ∙ 1000
same,Mean NFκB response,"[1]; 1 µM, 9 h",10141.67 GFP+-cells/confluence ∙ 1000
same,Mean NFκB response,"[1]; 1 µM, 12 h",15818.86 GFP+-cells/confluence ∙ 1000
same,Mean NFκB response,"[1]; 1 µM, 15 h",20214.01 GFP+-cells/confluence ∙ 1000
same,Mean NFκB response,"[1]; 1 µM, 18 h",23720.26 GFP+-cells/confluence ∙ 1000
same,Mean NFκB response,"[1]; 1 µM, 21 h",26076.44 GFP+-cells/confluence ∙ 1000
same,Mean NFκB response,"[1]; 1 µM, 24 h",27738.19 GFP+-cells/confluence ∙ 1000
same,NF-κB activity (inflammatory response to ionomycin/PMA),"[1]; HEK293 NF-κB reporter cells, compounds at recommended concentrations, imaged over 24 h, n = 3",reducing the inflammatory response
same,Growth rate [GR],HEK293T cells [2]; 1 µM,1.04 and 0.96 and 0.95 and 1.23 and 0.78 and 0.74 (3×) and 1.43 and 4.43
same,ΔTm at 20 µM,CSNK1D,0.64 °C
same,Necrosis induction [NI],HEK293T cells [3]; 1 µM,1.09 and 0.96 and 0.78 and 2.03
same,ΔTm at 20 µM,GSK3B,0 °C
same,ΔTm at 20 µM,CDK2,-0.07 °C
same,ΔTm at 20 µM,TRIM24,-0.62 °C
same,ΔTm at 20 µM,ABL1,-0.24 °C
same,VP16 control [fold reporter gene activity],Gal4-VP16,1.31 fold reporter gene activity and 1.10 fold reporter gene activity and 1.59 fold reporter gene activity
same,Apoptosis induction [AI],HEK293T cells [4]; 1 µM,0.64 and 1.56 and 0.90 and 1.15 and 1.90 and 3.05
same,apoptosis induction,"HEK293T cells [4]; budesonide (3 µM), others at tested concentration",slight apoptosis induction
same,ΔTm at 20 µM,MAPK1,0.55 °C
same,ΔTm at 20 µM,BRPF1,-4.53 °C
same,ΔTm at 20 µM,AURKA,-0.16 °C
same,ΔTm at 20 µM,BRD4,0.36 °C
